Tested on: ES cells
Assay: DNA microarray analysis of ES cells
Type: cell-based, mouse
Conditions: for Amino acid metabolism: % of genes regulated / Amino acid metabolism: D, number of down-regulated genes / Amino acid metabolism: I, number of up-regulated genes / Amino acid metabolism: No. (regulated genes/genes of function) / Apoptosis: % of genes regulated / Apoptosis: D, number of down-regulated genes / Apoptosis: I, number of up-regulated genes / Apoptosis: No. (regulated genes/genes of function) / Calcium signaling pathway: % of genes regulated / Calcium signaling pathway: D, number of down-regulated genes / Calcium signaling pathway: I, number of up-regulated genes / Calcium signaling pathway: No. (regulated genes/genes of pathway) / Cell adhesion molecules: % of genes regulated / Cell adhesion molecules: D, number of down-regulated genes / Cell adhesion molecules: I, number of up-regulated genes / Cell adhesion molecules: No. (regulated genes/genes of function) / Cell communication: % of genes regulated / Cell communication: D, number of down-regulated genes / Cell communication: I, number of up-regulated genes / Cell communication: No. (regulated genes/genes of function) / Cell cycle: % of genes regulated / Cell cycle: D, number of down-regulated genes / Cell cycle: I, number of up-regulated genes / Cell cycle: No. (regulated genes/genes of function) / ECM-receptor interaction: % of genes regulated / ECM-receptor interaction: D, number of down-regulated genes / ECM-receptor interaction: I, number of up-regulated genes / ECM-receptor interaction: No. (regulated genes/genes of pathway) / Insulin signaling pathway: % of genes regulated / Insulin signaling pathway: D, number of down-regulated genes / Insulin signaling pathway: I, number of up-regulated genes / Insulin signaling pathway: No. (regulated genes/genes of pathway) / JAK-STAT signaling pathway: % of genes regulated / JAK-STAT signaling pathway: D, number of down-regulated genes / JAK-STAT signaling pathway: I, number of up-regulated genes / JAK-STAT signaling pathway: No. (regulated genes/genes of pathway) / Lipid metabolism: % of genes regulated / Lipid metabolism: D, number of down-regulated genes / Lipid metabolism: I, number of up-regulated genes / Lipid metabolism: No. (regulated genes/genes of function) / MAPK signaling: % of genes regulated / MAPK signaling: D, number of down-regulated genes / MAPK signaling: I, number of up-regulated genes / MAPK signaling: No. (regulated genes/genes of pathway) / PPAR signaling pathway: % of genes regulated / PPAR signaling pathway: D, number of down-regulated genes / PPAR signaling pathway: I, number of up-regulated genes / PPAR signaling pathway: No. (regulated genes/genes of pathway) / TGF-β signaling pathway: % of genes regulated / TGF-β signaling pathway: D, number of down-regulated genes / TGF-β signaling pathway: I, number of up-regulated genes / TGF-β signaling pathway: No. (regulated genes/genes of pathway) / VEGF signaling pathway: % of genes regulated / VEGF signaling pathway: D, number of down-regulated genes / VEGF signaling pathway: I, number of up-regulated genes / VEGF signaling pathway: No. (regulated genes/genes of pathway) / Wnt signaling pathway: % of genes regulated / Wnt signaling pathway: D, number of down-regulated genes / Wnt signaling pathway: I, number of up-regulated genes / Wnt signaling pathway: No. (regulated genes/genes of pathway) / focal adhesion: % of genes regulated / focal adhesion: D, number of down-regulated genes / focal adhesion: I, number of up-regulated genes / focal adhesion: No. (regulated genes/genes of function) / tight junction: % of genes regulated / tight junction: D, number of down-regulated genes / tight junction: I, number of up-regulated genes / tight junction: No. (regulated genes/genes of function): ES cells, 24 hours
Method: The DNA microarray analysis was used to determine whether the gene expression profiles in various pathways in cells will be affected when the cells were cultured by a BP-containing medium.
An experimental group medium (BP10 or BP 40), a LIF-containing medium (without BP), and a control group medium (without BP) were used respectively in a 6-well culture dish to culture ES cells with an initial density of 1×10^4 per well for 24 hours. Next, performing total RNA extraction and the obtained RNA was labeled with Cy3. Samples were hybridized to Agilent Mouse G3 Whole Genome Oligo 86×60K microarrays (Agilent) according to the manufacturer's instructions. Arrays were scanned with a Microarray Scanner System and data was analyzed by using a GeneSpring GX software (Agilent).
According to the related research at present, the Jak-Stat signaling pathway is the most relevant in terms of stem cell self-renewal and pluripotency maintenance.

[1] = BP10 medium (about 10 μg BP/ml)
[2] = BP40 medium (about 40 μg BP/ml)

## CCCC=C1OC(=O)c2ccccc21 [BP, n-butylidenephthalide]
[1]
  Amino acid metabolism: % of genes regulated: 4.3%
  Amino acid metabolism: D, number of down-regulated genes: 1
  Amino acid metabolism: I, number of up-regulated genes: 0
  Amino acid metabolism: No. (regulated genes/genes of function): 1/23
  Apoptosis: % of genes regulated: 11.7%
  Apoptosis: D, number of down-regulated genes: 8
  Apoptosis: I, number of up-regulated genes: 3
  Apoptosis: No. (regulated genes/genes of function): 11/94
  Calcium signaling pathway: % of genes regulated: 21.9%
  Calcium signaling pathway: D, number of down-regulated genes: 28
  Calcium signaling pathway: I, number of up-regulated genes: 4
  Calcium signaling pathway: No. (regulated genes/genes of pathway): 32/146
  Cell adhesion molecules: % of genes regulated: 22%
  Cell adhesion molecules: D, number of down-regulated genes: 20
  Cell adhesion molecules: I, number of up-regulated genes: 13
  Cell adhesion molecules: No. (regulated genes/genes of function): 33/150
  Cell communication: % of genes regulated: 21.7%
  Cell communication: D, number of down-regulated genes: 17
  Cell communication: I, number of up-regulated genes: 3
  Cell communication: No. (regulated genes/genes of function): 20/92
  Cell cycle: % of genes regulated: 2.5%
  Cell cycle: D, number of down-regulated genes: 4
  Cell cycle: I, number of up-regulated genes: 0
  Cell cycle: No. (regulated genes/genes of function): 4/163
  ECM-receptor interaction: % of genes regulated: 28.4%
  ECM-receptor interaction: D, number of down-regulated genes: 18
  ECM-receptor interaction: I, number of up-regulated genes: 3
  ECM-receptor interaction: No. (regulated genes/genes of pathway): 21/74
  Insulin signaling pathway: % of genes regulated: 9.8%
  Insulin signaling pathway: D, number of down-regulated genes: 7
  Insulin signaling pathway: I, number of up-regulated genes: 3
  Insulin signaling pathway: No. (regulated genes/genes of pathway): 10/102
  JAK-STAT signaling pathway: % of genes regulated: 27.9%
  JAK-STAT signaling pathway: D, number of down-regulated genes: 30
  JAK-STAT signaling pathway: I, number of up-regulated genes: 9
  JAK-STAT signaling pathway: No. (regulated genes/genes of pathway): 39/140
  Lipid metabolism: % of genes regulated: 16.5%
  Lipid metabolism: D, number of down-regulated genes: 15
  Lipid metabolism: I, number of up-regulated genes: 3
  Lipid metabolism: No. (regulated genes/genes of function): 18/109
  MAPK signaling: % of genes regulated: 10.6%
  MAPK signaling: D, number of down-regulated genes: 17
  MAPK signaling: I, number of up-regulated genes: 7
  MAPK signaling: No. (regulated genes/genes of pathway): 24/227
  PPAR signaling pathway: % of genes regulated: 37.8%
  PPAR signaling pathway: D, number of down-regulated genes: 14
  PPAR signaling pathway: I, number of up-regulated genes: 14
  PPAR signaling pathway: No. (regulated genes/genes of pathway): 28/74
  TGF-β signaling pathway: % of genes regulated: 11.1%
  TGF-β signaling pathway: D, number of down-regulated genes: 2
  TGF-β signaling pathway: I, number of up-regulated genes: 3
  TGF-β signaling pathway: No. (regulated genes/genes of pathway): 5/45
  VEGF signaling pathway: % of genes regulated: 6.5%
  VEGF signaling pathway: D, number of down-regulated genes: 0
  VEGF signaling pathway: I, number of up-regulated genes: 2
  VEGF signaling pathway: No. (regulated genes/genes of pathway): 2/31
  Wnt signaling pathway: % of genes regulated: 10.6%
  Wnt signaling pathway: D, number of down-regulated genes: 5
  Wnt signaling pathway: I, number of up-regulated genes: 2
  Wnt signaling pathway: No. (regulated genes/genes of pathway): 7/66
  focal adhesion: % of genes regulated: 11%
  focal adhesion: D, number of down-regulated genes: 16
  focal adhesion: I, number of up-regulated genes: 3
  focal adhesion: No. (regulated genes/genes of function): 19/173
  tight junction: % of genes regulated: 13.6%
  tight junction: D, number of down-regulated genes: 7
  tight junction: I, number of up-regulated genes: 2
  tight junction: No. (regulated genes/genes of function): 9/66
[2]
  Amino acid metabolism: % of genes regulated: 8.7%
  Amino acid metabolism: D, number of down-regulated genes: 2
  Amino acid metabolism: I, number of up-regulated genes: 0
  Amino acid metabolism: No. (regulated genes/genes of function): 2/23
  Apoptosis: % of genes regulated: 7.4%
  Apoptosis: D, number of down-regulated genes: 6
  Apoptosis: I, number of up-regulated genes: 1
  Apoptosis: No. (regulated genes/genes of function): 7/94
  Calcium signaling pathway: % of genes regulated: 21.9%
  Calcium signaling pathway: D, number of down-regulated genes: 30
  Calcium signaling pathway: I, number of up-regulated genes: 2
  Calcium signaling pathway: No. (regulated genes/genes of pathway): 32/146
  Cell adhesion molecules: % of genes regulated: 22.7%
  Cell adhesion molecules: D, number of down-regulated genes: 21
  Cell adhesion molecules: I, number of up-regulated genes: 13
  Cell adhesion molecules: No. (regulated genes/genes of function): 34/150
  Cell communication: % of genes regulated: 21.7%
  Cell communication: D, number of down-regulated genes: 18
  Cell communication: I, number of up-regulated genes: 2
  Cell communication: No. (regulated genes/genes of function): 20/92
  Cell cycle: % of genes regulated: 3.7%
  Cell cycle: D, number of down-regulated genes: 6
  Cell cycle: I, number of up-regulated genes: 0
  Cell cycle: No. (regulated genes/genes of function): 6/163
  ECM-receptor interaction: % of genes regulated: 25.7%
  ECM-receptor interaction: D, number of down-regulated genes: 16
  ECM-receptor interaction: I, number of up-regulated genes: 3
  ECM-receptor interaction: No. (regulated genes/genes of pathway): 19/74
  Insulin signaling pathway: % of genes regulated: 4.9%
  Insulin signaling pathway: D, number of down-regulated genes: 3
  Insulin signaling pathway: I, number of up-regulated genes: 2
  Insulin signaling pathway: No. (regulated genes/genes of pathway): 5/102
  JAK-STAT signaling pathway: % of genes regulated: 25%
  JAK-STAT signaling pathway: D, number of down-regulated genes: 27
  JAK-STAT signaling pathway: I, number of up-regulated genes: 8
  JAK-STAT signaling pathway: No. (regulated genes/genes of pathway): 35/140
  Lipid metabolism: % of genes regulated: 12.8%
  Lipid metabolism: D, number of down-regulated genes: 12
  Lipid metabolism: I, number of up-regulated genes: 2
  Lipid metabolism: No. (regulated genes/genes of function): 10/109
  MAPK signaling: % of genes regulated: 10.6%
  MAPK signaling: D, number of down-regulated genes: 19
  MAPK signaling: I, number of up-regulated genes: 5
  MAPK signaling: No. (regulated genes/genes of pathway): 24/227
  PPAR signaling pathway: % of genes regulated: 36.5%
  PPAR signaling pathway: D, number of down-regulated genes: 14
  PPAR signaling pathway: I, number of up-regulated genes: 12
  PPAR signaling pathway: No. (regulated genes/genes of pathway): 27/74
  TGF-β signaling pathway: % of genes regulated: 13.3%
  TGF-β signaling pathway: D, number of down-regulated genes: 1
  TGF-β signaling pathway: I, number of up-regulated genes: 5
  TGF-β signaling pathway: No. (regulated genes/genes of pathway): 6/45
  VEGF signaling pathway: % of genes regulated: 0%
  VEGF signaling pathway: D, number of down-regulated genes: 0
  VEGF signaling pathway: I, number of up-regulated genes: 0
  VEGF signaling pathway: No. (regulated genes/genes of pathway): 0/31
  Wnt signaling pathway: % of genes regulated: 9.1%
  Wnt signaling pathway: D, number of down-regulated genes: 6
  Wnt signaling pathway: I, number of up-regulated genes: 0
  Wnt signaling pathway: No. (regulated genes/genes of pathway): 6/66
  focal adhesion: % of genes regulated: 12.7%
  focal adhesion: D, number of down-regulated genes: 20
  focal adhesion: I, number of up-regulated genes: 2
  focal adhesion: No. (regulated genes/genes of function): 22/173
  tight junction: % of genes regulated: 16.7%
  tight junction: D, number of down-regulated genes: 9
  tight junction: I, number of up-regulated genes: 2
  tight junction: No. (regulated genes/genes of function): 11/66
ES cells cultured with the BP-containing medium, result in words
  pathways of the genes significantly regulated: majorly involved in the PPAR, ECM-receptor interaction, and/or Jak-Stat signaling pathways
